# In patent US5849731A, “Indole derivatives and medical application thereof” (Toray Industries, Inc., priority 1995, dated 1998):
# Molecular target: T1, δ-opioid (Mus musculus, UniProt P32300)
# T1 construct: Each of the vas deferens isolated from the mice was hung in a Magnus tube; from tissue; host or cells: isolated vas deferens of male ddy strain mice
# Assay: δ-opioid antagonism against DPDPE in mouse vas deferens (MVD)
# Assay type: biochemical, mouse (male ddy strain)
# Details: not given
# Protocol: Using mouse vas deferens (MVD), antagonistic compounds were examined for antagonism against a δ-opioid agonist DPDPE, and agonistic compounds were examined for inhibitory activity against MVD contraction by electric stimulation, and for antagonism by a δ-opioid antagonist NTI.
# Male ddy strain mice were used in this experiment. Each of the vas deferens isolated from the mice was hung in a Magnus tube which was filled with a Krebes-Henseleit solution (NaCl […]; KCl 4.7 mM; CaCl2 2.5 mM; KH2 PO4 1.1 mM; NaHCO3 25 mM; glucose 11 mM), and aerated with a gas of 5% carbon dioxide and 95% oxygen and maintained at 37° C. Electric stimulation was applied through upper and lower ring-shaped platinum electrodes at 0.1 Hz and 5.0 mS. Tissue contraction was recorded on a polygraph using an isometric transducer.
# Initially, DPDPE was added in a cumulative manner to determine the IC50 value (concentration for 50% inhibition of contraction induced by electric stimulation). Next, 100 nM of a sample compound was added to the system beforehand, and 20 minutes later, DPDPE was added in a cumulative manner. According to the above procedure, the ratio of the IC50 value of DPDPE in the presence of the sample compound to that in the absence of it was determined, and the pA2 value was calculated in accordance with the Schild, et al.'s method [Schild, H. O., Br. J. Pharamacol. Chamother. 4, 277 (1949)].
# T1 sequence (P32300 whole entry): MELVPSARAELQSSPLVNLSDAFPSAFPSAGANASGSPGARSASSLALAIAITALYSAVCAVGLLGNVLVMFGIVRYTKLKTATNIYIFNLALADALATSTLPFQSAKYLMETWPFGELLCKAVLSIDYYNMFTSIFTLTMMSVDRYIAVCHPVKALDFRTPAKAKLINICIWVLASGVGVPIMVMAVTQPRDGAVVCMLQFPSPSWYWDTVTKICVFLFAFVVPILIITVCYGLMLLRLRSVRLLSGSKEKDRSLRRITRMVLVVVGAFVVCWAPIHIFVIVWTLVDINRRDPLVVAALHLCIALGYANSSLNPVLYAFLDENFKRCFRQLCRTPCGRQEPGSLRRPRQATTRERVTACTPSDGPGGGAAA
row,SMILES,Kb [nM]
1,"Oc1ccc2c3c1O[C@H]1c4c(c5cc(Cl)cc6c5n4CCC6)C[C@@]4(O)[C@@H](C2)N(CC2CC2)CC[C@]314 [Compound 8, 17-cyclopropylmethyl-6,7-didehydro-4,5α-epoxy-3,14β-dihydroxy-1',7'-trimethylene-5'-chloro-6,7,2',3'-indolomorphinan]",5.01
2,"COc1cc2c3c(c1)c1c(n3CCC2)[C@@H]2Oc3c(O)ccc4c3[C@@]23CCN(CC2CC2)[C@H](C4)[C@]3(O)C1 [Compound 19, 17-cyclopropylmethyl-6,7-didehydro-4,5α-epoxy-3,14β-dihydroxy-1',7'-trimethylene-5'-methoxy-6,7,2',3'-indolomorphinan]",1
3,"Oc1ccc2c3c1O[C@H]1c4c(c5cc(Br)cc6c5n4CCC6)C[C@@]4(O)[C@@H](C2)N(CC2CC2)CC[C@]314 [Compound 20, 17-cyclopropylmethyl-6,7-didehydro-4,5α-epoxy-3,14β-dihydroxy-1',7'-trimethylene-5'-bromo-6,7,2',3'-indolomorphinan]",3.98
4,"Oc1ccc2c3c1O[C@H]1c4c(c5cccc6c5n4CCCCC6)C[C@@]4(O)[C@@H](C2)N(CC2CC2)CC[C@]314 [Compound 21, 17-cyclopropylmethyl-6,7-didehydro-4,5α-epoxy-3,14β-dihydroxy-1',7'-pentamethylene-6,7,2',3'-indolomorphinan]",10
5,"Oc1ccc2c3c1O[C@H]1c4c(c5cccc6c5n4CCS6)C[C@@]4(O)[C@@H](C2)N(CC2CC2)CC[C@]314 [Compound 22, 17-cyclopropylmethyl-6,7-didehydro-4,5α-epoxy-3,14β-dihydroxy-7',1'-epithioethano-6,7,2',3'-indolomorphinan]",0.794
6,"Oc1ccc2c3c1O[C@H]1c4c(c5cccc6c5n4CCO6)C[C@@]4(O)[C@@H](C2)N(CC2CC2)CC[C@]314 [Compound 23, 17-cyclopropylmethyl-6,7-didehydro-4,5α-epoxy-3,14β-dihydroxy-7',1'-epoxyethano-6,7,2',3'-indolomorphinan]",0.158
7,"Oc1ccc2c3c1O[C@H]1c4c(c5c(C(F)(F)F)ccc6c5n4CCC6)C[C@@]4(O)[C@@H](C2)N(CC2CC2)CC[C@]314 [Compound 24, 17-cyclopropylmethyl-6,7-didehydro-4,5α-epoxy-3,14β-dihydroxy-1',7'-trimethylene-4'-trifluoromethyl-6,7,2',3'-indolomorphinan]",10
8,"CC1(C)Cc2cccc3c4c(n(c23)C1)[C@@H]1Oc2c(O)ccc3c2[C@@]12CCN(CC1CC1)[C@H](C3)[C@]2(O)C4 [Compound 26, 17-cyclopropylmethyl-6,7-didehydro-4,5α-epoxy-3,14β-dihydroxy-1',7'-(2,2-dimethylpropano)-6,7,2',3'-indolomorphinan]",3.16
9,"COc1ccc2c3c1c1c(n3CCC2)[C@@H]2Oc3c(O)ccc4c3[C@@]23CCN(CC2CC2)[C@H](C4)[C@]3(O)C1 [Compound 27, 17-cyclopropylmethyl-6,7-didehydro-4,5α-epoxy-3,14β-dihydroxy-1',7'-trimethylene-4'-methoxy-6,7,2',3'-indolomorphinan]",12.6
10,"C=CCN1CC[C@]23c4c5ccc(O)c4O[C@H]2c2c(c4cccc6c4n2CCC6)C[C@@]3(O)[C@H]1C5 [Compound 30, 17-allyl-6,7-didehydro-4,5α-epoxy-3,14β-dihydroxy-1',7'-trimethylene-6,7,2',3'-indolomorphinan]",12.6
11,"CO[C@@]12Cc3c(n4c5c(cccc35)CCC4)[C@@H]3Oc4c(O)ccc5c4[C@@]31CCN(CC1CC1)[C@@H]2C5 [Compound 66, 17-cyclopropylmethyl-6,7-didehydro-4,5α-epoxy-3-hydroxy-14β-methoxy-1',7'-trimethylene-6,7,2',3'-indolomorphinan]",0.316

# Same assay, conditions: MVD; 100 nM sample compound added 20 minutes before cumulative DPDPE; Schild method
row,SMILES,pA2
1,"Oc1ccc2c3c1O[C@H]1c4c(c5cccc6c5n4CC6)C[C@@]4(O)[C@@H](C2)N(CC2CC2)CC[C@]314 [Compound 1, 17-Cyclopropylmethyl-6,7-didehydro-4,5α-epoxy-3,14β-dihydroxy-1',7'-ethylene-6,7,2',3'-indolomorphinan]",9.2

# System: capsaicin-induced cough
# Assay: Antitussive action in rat, capsaicin-induced cough
# Assay type: in vivo
# Details: ip, 0.5 h, dosage for 50% cough inhibition, intraperitoneal, 10% DMSO solution, 30 minutes after administration
# Protocol: Evaluation of Antitussive Action in Rat as a Model for Capsaicin-Induced Cough
# Cough was induced by forcing rats to inhale capsaicin (60 μM) which was nebulized by an ultrasonic nebulizer, and fed to caps over the rats' heads through silicone tubes by a respirator. Capsaicin was fed for inhalation at a rate of 70 times/min. and 10 ml each time.
# Two hundred and seventy minutes before the drug administration, capsaicin was inhaled for 5 minutes, and inducement of coughing was confirmed during this period. Thirty minutes after the drug administration, capsaicin was inhaled for 5 minutes, and the number of induced coughs during capsaicin inhalation was counted. Antitussive effect was evaluated by determining an inhibitory ratio, namely, the ratio of the number of coughs after the drug administration to that before the drug administration. Capsaicin was dissolved in saline. Each drug was dissolved in a 10% DMSO solution and intraperitoneally administered. The effect of the drug is expressed with an ED50 value which is the dosage for 50% cough inhibition
row,SMILES,ED50 [µg/kg]
1,"Oc1ccc2c3c1O[C@H]1c4c(c5cccc6c5n4CC6)C[C@@]4(O)[C@@H](C2)N(CC2CC2)CC[C@]314 [Compound 1, 17-Cyclopropylmethyl-6,7-didehydro-4,5α-epoxy-3,14β-dihydroxy-1',7'-ethylene-6,7,2',3'-indolomorphinan]",9.14
2,"COc1ccc2c3c1O[C@H]1c4c(c5ccc(OC)c6c5n4CCC6)C[C@@]4(O)[C@@H](C2)N(CC2CC2)CC[C@]314 [Compound 12, 17-cyclopropylmethyl-6,7-didehydro-4,5α-epoxy-3,6'-dimethoxy-14β-hydroxy-1',7'-trimethylene-6,7,2',3'-indolomorphinan]",2.5
3,"COc1ccc2c3c1O[C@H]1c4c(c5cc(C)cc6c5n4CCC6)C[C@@]4(O)[C@@H](C2)N(CC2CC2)CC[C@]314 [Compound 13, 17-cyclopropylmethyl-6,7-didehydro-4,5α-epoxy-3-methoxy-14β-hydroxy-1',7'-trimethylene-5'-methyl-6,7,2',3'-indolomorphinan]",5.33
4,"COc1ccc2c3c1O[C@H]1c4c(c5c(C)ccc6c5n4CCC6)C[C@@]4(O)[C@@H](C2)N(CC2CC2)CC[C@]314 [Compound 14, 17-cyclopropylmethyl-6,7-didehydro-4,5α-epoxy-3-methoxy-14β-hydroxy-1',7'-trimethylene-4'-methyl-6,7,2',3'-indolomorphinan]",23.8
5,"COc1ccc2c3c1O[C@H]1c4c(c5cccc6c5n4CCCC6)C[C@@]4(O)[C@@H](C2)N(CC2CC2)CC[C@]314 [Compound 15, 17-cyclopropylmethyl-6,7-didehydro-4,5α-epoxy-3-methoxy-14β-hydroxy-1',7'-tetramethylene-6,7,2',3'-indolomorphinan]",9.68
6,"COc1ccc2c3c1O[C@H]1c4c(c5cc(F)cc6c5n4CCC6)C[C@@]4(O)[C@@H](C2)N(CC2CC2)CC[C@]314 [Compound 16, 17-cyclopropylmethyl-6,7-didehydro-4,5α-epoxy-3-methoxy-14β-hydroxy-1',7'-trimethylene-5'-fluoro-6,7,2',3'-indolomorphinan]",4.73
7,"COc1ccc2c3c1O[C@H]1c4c(c5cccc6c5n4Cc4ccccc4-6)C[C@@]4(O)[C@@H](C2)N(CC2CC2)CC[C@]314 [Compound 17, 17-cyclopropylmethyl-6,7-didehydro-4,5α-epoxy-3-methoxy-14β-hydroxy-1',7'-(2"",3""-benzotrimethylene)-6,7,2',3'-indolomorphinan]",5.02
8,"COc1ccc2c3c1O[C@H]1c4c(c5cc(Cl)cc6c5n4CCC6)C[C@@]4(O)[C@@H](C2)N(CC2CC2)CC[C@]314 [Compound 18, 17-cyclopropylmethyl-6,7-didehydro-4,5α-epoxy-3-methoxy-14β-hydroxy-1',7'-trimethylene-5'-chloro-6,7,2',3'-indolomorphinan]",13.4
9,"C=CCN1CC[C@]23c4c5ccc(OC)c4O[C@H]2c2c(c4cccc6c4n2CCC6)C[C@@]3(O)[C@H]1C5 [Compound 34, 17-allyl-6,7-didehydro-4,5α-epoxy-3-methoxy-14β-hydroxy-1',7'-trimethylene-6,7,2',3'-indolomorphinan]",1.1
10,"COc1ccc2c3c1O[C@H]1c4c(c5cc(Br)cc6c5n4CCC6)C[C@@]4(O)[C@@H](C2)N(CC2CC2)CC[C@]314 [Compound 35, 17-cyclopropylmethyl-6,7-didehydro-4,5α-epoxy-3-methoxy-14β-hydroxy-1',7'-trimethylene-5'-bromo-6,7,2',3'-indolomorphinan]",21.2
11,"COc1ccc2c3c1O[C@H]1c4c(c5cccc6c5n4CCC6(C)C)C[C@@]4(O)[C@@H](C2)N(CC2CC2)CC[C@]314 [Compound 40, 17-cyclopropylmethyl-6,7-didehydro-4,5α-epoxy-3-methoxy-14β-hydroxy-1',7'-(1,1-dimethylpropano)-6,7,2',3'-indolomorphinan]",2.46
12,"COc1ccc2c3c1O[C@H]1c4c(c5ccc6cccc7c6c5n4CC7)C[C@@]4(O)[C@@H](C2)N(CC2CC2)CC[C@]314 [Compound 42, 17-cyclopropylmethyl-6,7-didehydro-4,5α-epoxy-3-methoxy-14β-hydroxy-1',3""-ethylene-6',7'-benzo-6,7,2',3'-indolomorphinan]",21.1
13,"COc1ccc2c3c1O[C@H]1c4c(c5c(OC)ccc6c5n4CCC6)C[C@@]4(O)[C@@H](C2)N(CC2CC2)CC[C@]314 [Compound 44, 17-cyclopropylmethyl-6,7-didehydro-4,5α-epoxy-3,4'-dimethoxy-14β-hydroxy-1',7'-trimethylene-6,7,2',3'-indolomorphinan]",10.9
